We go through one substance from US20240083946A1, “SELF-ASSEMBLING PEPTIDES, NANOFIBERS, AND METHODS OF USE” (The Board of Regents of the University of Oklahoma, priority 2021, published 2024).

In the test the test system is OVCAR-8 ovarian cancer cells. Nature of the test: Toxicity of peptide sets and individual peptides to OVCAR-8 cells (relative ATP, live/dead imaging). It is filed as cell-based. The following applies: 6 hours, FIGS. 6A-B. How it is done: Image analysis indicated green cells were living and red cells were dead (color not shown).
Incubation of the peptides with OVCAR-8 ovarian cancer cells were incubated with the peptides of the [AA], [II], [WW] peptide sets. […] Red fluorescence (ethidium homodimer-1) was associated with loss of plasma membrane integrity whereas the green fluorescence correlated with intracellular esterase activity of metabolically active cells (color not shown in figures). Pyroptosis is a newly identified cell death modality characterized by the formation of large bubbles on the plasma membrane and cell swelling. Recently pyroptosis has been classified as a regulated cell death (RCD) by Nomenclature Committee on Cell Death (NCCD). Peptide-treated OVCAR-8 cells indicated pyroptotic morphology. One of the pathways mediating pyroptosis is through cleavage of caspase-3.

On to KFFWWK, for which the “toxicity to OVCAR-8 cells” value is on record as “toxicity”.
